Results reported in patent publication US10259810B2, “N-sulfonylated pyrazolo[3,4-b]pyridin-6-carboxamides and method of use” (AbbVie S.à.r.l., priority 2015, dated 2019).
Read-outs that look alike come from different tables or passages of the source.

Molecular target: T1, ΔF508-CFTR (Homo sapiens, UniProt P13569, DEL508-508)
T1 construct: host or cells: CFBE41o-, doxycycline-inducible
Test: CFTR cell surface levels using HRP-tagged ΔF508-CFTR expressing CFBE cells, in the presence of a co-corrector
Format: cell-based
Source text: Measuring CFTR Cell Surface Levels Using HRP-Tagged ΔF508-CFTR Expressing CFBE Cells
The HRP-tagged ΔF508-CFTR cell assay measures the expression of CFTR-ΔF508 at the plasma membrane. CFTR-ΔF508 has a folding defect leading to absence of protein at the plasma membrane. This assay is used to evaluate the capacity of compounds to increase the expression of CFTR-ΔF508 at the plasma membrane. The CFTR-ΔF508 is tagged with HRP (horse radish peroxidase enzyme) within the ECL4 (Extracellular loop 4) of CFTR (Phuan, P.-W. et al. Synergy-based small-molecule screen using a human lung epithelial cell line yields ΔF508-CFTR correctors that augment VX-809 maximal efficacy. Mol. Pharmacol. 86, 42-51 (2014)). When HRP-tagged ΔF508-CFTR is present at the plasma membrane, the HRP enzyme activity can be measured. The amount of CFTR-ΔF508 that can be rescued to the plasma membrane is correlated with the amount of functional enzyme that can be measured.
There are several ways to measure the capacity of compounds to rescue CFTR-ΔF508 to the plasma membrane; either compounds are evaluated on their own and the impact on plasma membrane levels is measured or compounds are evaluated in combination with a co-corrector, i.e. a compound that rescues CFTR-ΔF508 to the plasma membrane but rescue can be enhanced by addition of compounds due to a complementary mode of action.
Activity of Compounds in Combination with Co-Corrector:
For this purpose doxycycline-inducible ΔF508-CFTR-HRP expressing CFBE4lo− cells (obtained from Gergely Lukacs, McGill University) were maintained in MEM (Minimum Essential Medium, Gibco; 31095) supplemented with 10% fetal bovine serum (Hyclone; SV30160.03) under puromycin (3 μg/mL) and G418 selection (0.2 mg/mL). For compound testing, cells were seeded at 4000 cells/well in white 384-well plates (Greiner; 781080) in 50 μL of medium containing 0.5 μg/mL doxycycline and incubated for 68 hours at 37° C., 5% CO2. On day four, 10 μL of test compounds diluted in PBS (phosphate buffered saline) were added to the plates at a final DMSO concentration of 0.1%. In order to measure compound synergy with a co-corrector, 3 μM co-corrector (3-[(2R,4R)-4-({[1-(2,2-difluoro-1,3-benzodioxol-5-yl)cyclopropyl]carbonyl}amino)-7-methoxy-3,4-dihydro-2H-chromen-2-yl]benzoic acid) was added along with test compounds. All compound plates contained negative controls (DMSO) and positive controls (3 μM co-corrector). Cell plates were incubated at 33° C., 5% CO2 for 20 hours. On day five, the cells were washed five times with phosphate-buffered saline, and HRP activity was assayed by the addition of 50 μL/well of HRP substrate (SuperSignal™ West Pico Chemiluminescent Substrate, Thermo Scientific; 34080). After incubation for 15 minutes in the dark, the chemiluminescence was measured using a plate reader (EnVision®, Perkin Elmer). Raw data were normalized to percentage activity values using the equation: 100×(Sample−Negative control)/(Positive control−Negative Control).

[1] = HRP-tagged ΔF508-CFTR CFBE cells, in the presence of 3 μM co-corrector
[2] = HRP-tagged ΔF508-CFTR CFBE cells, in the presence of 3 μM co-corrector, read-out: EC50

T1 sequence (P13569 with tags, fused parts or gaps DEL508-508): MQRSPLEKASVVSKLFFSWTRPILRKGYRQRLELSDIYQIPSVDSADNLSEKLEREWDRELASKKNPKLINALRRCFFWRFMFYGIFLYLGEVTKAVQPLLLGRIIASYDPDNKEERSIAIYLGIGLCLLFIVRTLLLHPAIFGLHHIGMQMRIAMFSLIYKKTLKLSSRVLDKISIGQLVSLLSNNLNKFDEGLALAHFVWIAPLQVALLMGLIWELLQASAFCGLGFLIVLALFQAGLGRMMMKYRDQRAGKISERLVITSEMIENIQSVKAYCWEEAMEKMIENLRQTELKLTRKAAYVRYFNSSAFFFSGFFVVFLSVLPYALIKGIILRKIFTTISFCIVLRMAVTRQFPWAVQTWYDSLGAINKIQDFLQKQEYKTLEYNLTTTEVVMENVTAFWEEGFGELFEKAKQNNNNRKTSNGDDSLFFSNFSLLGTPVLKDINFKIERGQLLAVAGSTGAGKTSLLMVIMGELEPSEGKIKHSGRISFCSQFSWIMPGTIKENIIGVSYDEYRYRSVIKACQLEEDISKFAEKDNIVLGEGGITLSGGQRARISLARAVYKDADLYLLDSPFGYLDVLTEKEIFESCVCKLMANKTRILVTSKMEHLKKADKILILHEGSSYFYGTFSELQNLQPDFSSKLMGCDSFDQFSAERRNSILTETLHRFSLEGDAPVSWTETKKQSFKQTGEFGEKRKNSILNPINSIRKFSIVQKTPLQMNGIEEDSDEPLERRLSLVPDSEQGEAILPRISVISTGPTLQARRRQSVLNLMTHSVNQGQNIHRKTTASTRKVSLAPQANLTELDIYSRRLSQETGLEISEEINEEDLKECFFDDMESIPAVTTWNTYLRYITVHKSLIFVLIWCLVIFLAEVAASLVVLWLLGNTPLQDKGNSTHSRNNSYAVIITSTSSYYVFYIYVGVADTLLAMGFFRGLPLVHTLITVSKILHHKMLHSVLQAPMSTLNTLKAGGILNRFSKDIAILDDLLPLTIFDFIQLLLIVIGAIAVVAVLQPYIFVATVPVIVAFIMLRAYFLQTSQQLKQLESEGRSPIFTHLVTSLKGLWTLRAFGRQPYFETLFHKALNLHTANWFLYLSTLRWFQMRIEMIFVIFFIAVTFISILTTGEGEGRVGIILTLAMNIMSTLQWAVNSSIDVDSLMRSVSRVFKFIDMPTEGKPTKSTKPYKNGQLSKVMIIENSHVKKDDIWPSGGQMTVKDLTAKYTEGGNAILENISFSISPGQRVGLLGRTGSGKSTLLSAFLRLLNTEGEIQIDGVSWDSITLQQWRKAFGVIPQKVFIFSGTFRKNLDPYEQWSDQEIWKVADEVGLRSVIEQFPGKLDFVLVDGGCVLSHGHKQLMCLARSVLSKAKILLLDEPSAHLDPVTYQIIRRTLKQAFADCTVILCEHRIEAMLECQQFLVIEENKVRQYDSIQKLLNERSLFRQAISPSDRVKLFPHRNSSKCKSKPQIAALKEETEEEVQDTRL

Row | SMILES | % Activation [1] | EC50 [2] | EC50
1 | COCCOCC1(F)CCN(c2cc(C(=O)NS(C)(=O)=O)nc3c2c(C(C)C)nn3-c2ccc(F)cc2)CC1 [Compound 343, 4-{4-fluoro-4-[(2-methoxyethoxy)methyl]piperidin-1-yl}-1-(4-fluorophenyl)-N-(methanesulfonyl)-3-(propan-2-yl)-1H-pyrazolo[3,4-b]pyridine-6-carboxamide] | 356.9% | 566 nM | –
2 | COCC(COC)Oc1cc(C(=O)NS(C)(=O)=O)nc2c1c(C1CCC1)nn2-c1ccccc1 [Compound 324, 3-cyclobutyl-4-[(1,3-dimethoxypropan-2-yl)oxy]-N-(methanesulfonyl)-1-phenyl-1H-pyrazolo[3,4-b]pyridine-6-carboxamide] | 259.7% | 1640 nM | –
3 | CN1CCN(C(=O)C2CCN(S(=O)(=O)NC(=O)c3cc(OCC4CCOCC4)c4c(C5CCC5)nn(-c5ccccc5)c4n3)CC2)CC1 [Compound 360, 3-cyclobutyl-N-[4-(4-methylpiperazine-1-carbonyl)piperidine-1-sulfonyl]-4-[(oxan-4-yl)methoxy]-1-phenyl-1H-pyrazolo[3,4-b]pyridine-6-carboxamide] | 182.8% | 101 nM | –
4 | CCOCC1(F)CCN(c2cc(C(=O)NS(C)(=O)=O)nc3c2c(C(C)C)nn3-c2ccc(F)cc2)CC1 [Compound 342, 4-[4-(ethoxymethyl)-4-fluoropiperidin-1-yl]-1-(4-fluorophenyl)-N-(methanesulfonyl)-3-(propan-2-yl)-1H-pyrazolo[3,4-b]pyridine-6-carboxamide] | 336.5% | 207 nM | –
5 | O=C(NS(=O)(=O)C1CCOC1)c1cc(N2CCN(c3ccncc3)CC2)c2c(C3CCC3)nn(C3CCCCC3)c2n1 (centres unmarked) [Compound 468, 3-cyclobutyl-1-cyclohexyl-N-(oxolane-3-sulfonyl)-4-[4-(pyridin-4-yl)piperazin-1-yl]-1H-pyrazolo[3,4-b]pyridine-6-carboxamide] | 443.05% | 524 nM | –
6 | COCC(COC)Oc1cc(C(=O)NS(C)(=O)=O)nc2c1c(C(C)C)nn2-c1ccc(F)cc1 [Compound 311, 4-[(1,3-dimethoxypropan-2-yl)oxy]-1-(4-fluorophenyl)-N-(methanesulfonyl)-3-(propan-2-yl)-1H-pyrazolo[3,4-b]pyridine-6-carboxamide] | 241.35% | 1060 nM | –
7 | O=C(NS(=O)(=O)N1CCOCC1)c1cc(OCC2CCOCC2)c2c(C3CCC3)nn(-c3ccccc3)c2n1 [Compound 358, 3-cyclobutyl-N-(morpholine-4-sulfonyl)-4-[(oxan-4-yl)methoxy]-1-phenyl-1H-pyrazolo[3,4-b]pyridine-6-carboxamide] | 242.33% | 89.9 nM | –
8 | CS(=O)(=O)NC(=O)c1cc(OCCCN2CCCCC2)c2c(C3CCC3)nn(-c3ccccc3)c2n1 [Compound 314, 3-cyclobutyl-N-(methanesulfonyl)-1-phenyl-4-[3-(piperidin-1-yl)propoxy]-1H-pyrazolo[3,4-b]pyridine-6-carboxamide] | 375.8% | 693 nM | –
9 | O=C(NS(=O)(=O)C1CC1)c1cc(N2CCC(N3CCCCC3)CC2)c2c(C3CCC3)nn(-c3ccccc3)c2n1 [Compound 428, 4-([1,4′-bipiperidin]-1′-yl)-3-cyclobutyl-N-(cyclopropanesulfonyl)-1-phenyl-1H-pyrazolo[3,4-b]pyridine-6-carboxamide] | 434.7% | – | 77.3 nM
10 | CC(C)c1nn(-c2ccc(F)cc2)c2nc(C(=O)NS(C)(=O)=O)cc(N3CC[C@@H](O)[C@H](F)C3)c12 [Compound 344, 4-[(3R,4R)-3-fluoro-4-hydroxypiperidin-1-yl]-1-(4-fluorophenyl)-N-(methanesulfonyl)-3-(propan-2-yl)-1H-pyrazolo[3,4-b]pyridine-6-carboxamide] | 374.5% | 1060 nM | –
11 | CC(C)c1nn(-c2ccc(F)cc2)c2nc(C(=O)NS(C)(=O)=O)cc(OCCOC3COC3)c12 [Compound 313, 1-(4-fluorophenyl)-N-(methanesulfonyl)-4-{2-[(oxetan-3-yl)oxy]ethoxy}-3-(propan-2-yl)-1H-pyrazolo[3,4-b]pyridine-6-carboxamide] | 319.75% | 1750 nM | –
12 | CCS(=O)(=O)NC(=O)c1cc(N2CCC(C(C)N3CCOCC3)CC2)c2c(C3CCC3)nn(-c3ccc(F)cc3)c2n1 (centres unmarked) [Compound 446, 3-cyclobutyl-N-(ethanesulfonyl)-1-(4-fluorophenyl)-4-{4-[1-(morpholin-4-yl)ethyl]piperidin-1-yl}-1H-pyrazolo[3,4-b]pyridine-6-carboxamide] | 669.9% | 77.4 nM | –
13 | O=C(NS(=O)(=O)C1CCOC1)c1cc(-c2ccc(CN3CCOCC3)cc2)c2c(OC3CCC3)nn(C3CCCCC3)c2n1 (centres unmarked) [Compound 467, 3-(cyclobutyloxy)-1-cyclohexyl-4-{4-[(morpholin-4-yl)methyl]phenyl}-N-(oxolane-3-sulfonyl)-1H-pyrazolo[3,4-b]pyridine-6-carboxamide] | 229.15% | 270 nM | –
14 | CCS(=O)(=O)NC(=O)c1cc(-c2ccc(N3CCOCC3)cc2)c2c(C)nn(-c3ccccc3)c2n1 [Compound 5, N-(ethanesulfonyl)-3-methyl-4-[4-(morpholin-4-yl)phenyl]-1-phenyl-1H-pyrazolo[3,4-b]pyridine-6-carboxamide] | 362.75% | 372 nM | –
15 | CC(C)c1nn(-c2ccc(F)cc2)c2nc(C(=O)NS(=O)(=O)C3CC3)cc(N3CCC(N4CCOCC4)CC3)c12 [Compound 414, N-(cyclopropanesulfonyl)-1-(4-fluorophenyl)-4-[4-(morpholin-4-yl)piperidin-1-yl]-3-(propan-2-yl)-1H-pyrazolo[3,4-b]pyridine-6-carboxamide] | 508.3% | – | 159 nM
16 | COCC1CCN(c2cc(C(=O)NS(=O)(=O)CCn3cccn3)nc3c2c(C2CCC2)nn3-c2ccccc2)CC1 [Compound 372, 3-cyclobutyl-4-[4-(methoxymethyl)piperidin-1-yl]-1-phenyl-N-[2-(1H-pyrazol-1-yl)ethanesulfonyl]-1H-pyrazolo[3,4-b]pyridine-6-carboxamide] | 615.7% | 2560 nM | –
17 | CCS(=O)(=O)NC(=O)c1cc(N2CCC(N3CCCCC3)CC2)c2c(C3CCC3)nn(-c3ccccc3)c2n1 [Compound 427, 4-([1,4′-bipiperidin]-1′-yl)-3-cyclobutyl-N-(ethanesulfonyl)-1-phenyl-1H-pyrazolo[3,4-b]pyridine-6-carboxamide] | 419.5% | – | 162 nM
18 | CC(C)c1nn(-c2ccc(F)cc2)c2nc(C(=O)NS(C)(=O)=O)cc(N3CCC4(CC3)NC(=O)NC4=O)c12 [Compound 341, 4-(2,4-dioxo-1,3,8-triazaspiro[4.5]decan-8-yl)-1-(4-fluorophenyl)-N-(methanesulfonyl)-3-(propan-2-yl)-1H-pyrazolo[3,4-b]pyridine-6-carboxamide] | 165.4% | 3330 nM | –
19 | CCS(=O)(=O)NC(=O)c1cc(N2CCC(N3CCOCC3)CC2)c2c(C(C)C)nn(-c3ccc(F)cc3)c2n1 [Compound 413, N-(ethanesulfonyl)-1-(4-fluorophenyl)-4-[4-(morpholin-4-yl)piperidin-1-yl]-3-(propan-2-yl)-1H-pyrazolo[3,4-b]pyridine-6-carboxamide] | 455.9% | – | 90.6 nM
